Values joined by “and” are separate entries in the source; they are usually repeats but may differ in a detail not shown here. Equal entries are not always repeated. Structures can show the parent of a compound that is named as a salt. Each block holds one compound with its values, some of them ahead of it.
Experiment: Analysis of optical characteristics (absorption, fluorescence emission, quantum yield) in solvents
Type: physicochemical
Conditions: for peak emission (λmax): aqueous solution (H2O); for Relative fluorescence Emission Intensitynorm: normalized fluorescence intensity; for Relative fluorescence Emission Intensitynorm / Fluorescence Emission Intensity / Peak emission wavelength λmax em(nm): H2O at 2 μM; for Peak emission wavelength λmax em(nm): excited at the longest absorption maxima
Description: Fluorescence emission spectra were obtained at 20° C. using a JASCO FP-6500 spectrofluorometer, a 10 mM stock solution prepared by dissolving an indolizino[3,2-c]quinoline compound in DMSO was diluted in a solvent. […] Absorption spectra were recorded at room temperature using a Perkin Elmer Lamda 20 UV/VIS spectrometer. […]
Further, the compounds (excluding Entry #51-57, etc.) of Formula 1 were subjected to spectrum analyses in various solvents, and the results are shown in Tables 6 and 7, and FIGS. 5C and 5D.

SMILES: c1cc(-c2nc3ccccc3c3cc4ccccn4c23)nc(-c2nc3ccccc3c3cc4ccccn4c23)c1 [IQ 5-D, 2,6-bis(indolizino[3,2-c]quinolin-6-yl)pyridine]
λex(nm) (Table 6): 402 nm and 422 nm
peak emission (λmax): 543 nm

SMILES: COc1ccc(-c2c3c(cc4ccccn43)c3ccccc3[n+]2C)cc1 [IQ 6-S1-Me, 6-(4-methoxyphenyl)-5-methylindolizino[3,2-c]quinolin-5-ium methyl sulfate]
solvent-dependent (environment-sensitive) tendency of the emission: hardly showed an environment-sensitive optical characteristic
λex(nm) (Table 6): 458 nm

SMILES: COc1ccc(-c2c3c(cc4ccccn43)c3ccccc3[n+]2CCCl)cc1 [IQ 6-S2-Cl, 5-(2-chloroethyl)-6-(4-methoxyphenyl)indolizino[3,2-c]quinolin-5-ium trifluoromethanesulfonate]
solvent-dependent (environment-sensitive) tendency of the emission: hardly showed an environment-sensitive optical characteristic
λex(nm) (Table 6): 464 nm

SMILES: CCCCn1cc(-c2c3c4ccccc4nc(-c4ccc(OC)cc4)c3n3ccccc23)nn1 [IQ 6-T, 12-(1-butyl-1H-1,2,3-triazol-4-yl)-6-(4-methoxyphenyl)indolizino[3,2-c]quinoline]
λex(nm) (Table 6): 403 nm

SMILES: COc1ccc(-c2nc3ccccc3c3c(-c4cn(CCOCCOCCOCCNC(=O)CCCCCC5[C@H]6NC(=O)N[C@H]6C[S+]5[O-])nn4)c4ccccn4c23)cc1 (stereo partly drawn) [IQ 6-T-B, N-(2-(2-(2-(2-(4-(6-(4-methoxyphenyl)indolizino[3,2-c]quinolin-12-yl)-1H-1,2,3-triazol-1-yl)ethoxy)ethoxy)ethoxy)ethyl)-6-((3aS,6aR)-5-oxido-2-oxohexahydro-1H-thieno[3,4-d]imidazol-4-yl)hexanamide]
λex(nm) (Table 6): 437 nm

SMILES: COC(=O)c1c2c3ccccc3nc(-c3ccc[nH]3)c2n2ccccc12 [IQ 21, Methyl 6-(1H-pyrrol-2-yl)indolizino[3,2-c]quinoline-12-carboxylate]
solvent-dependent (environment-sensitive) tendency of the emission: blue-shift
peak emission (λmax): 433 nm

SMILES: CCOC(=O)c1c2c3ccccc3nc(-c3ccc([N+](=O)[O-])cc3)c2n2ccccc12 [IQ 26, ethyl 6-(4-nitrophenyl)indolizino[3,2-c]quinoline-12-carboxylate]
fluorescence (intensity, in words): did not induce fluorescence

SMILES: CCOC(=O)c1c2c3ccccc3nc(-c3cccc(F)c3)c2n2ccccc12 [IQ 28, ethyl 6-(3-fluorophenyl)indolizino[3,2-c]quinoline-12-carboxylate]
solvent-dependent (environment-sensitive) tendency of the emission: solvatochromic effect

SMILES: CCOC(=O)c1c2c3ccccc3nc(-c3ccc(OC)c(OC)c3)c2n2ccccc12 [IQ 30, ethyl 6-(3,4-dimethoxyphenyl)indolizino[3,2-c]quinoline-12-carboxylate]
solvent-dependent (environment-sensitive) tendency of the emission: solvatochromic effect

SMILES: C#Cc1c2c3ccccc3nc(-c3ccc(OC)cc3)c2n2ccccc12 [IQ 55, 12-ethynyl-6-(4-methoxyphenyl)indolizino[3,2-c]quinoline]
solvent-dependent (environment-sensitive) tendency of the emission: hardly showed an environment-sensitive optical characteristic

SMILES: COc1ccc(-c2nc3ccccc3c3cc4cc(C#N)ccn4c23)cc1 [IQ 67, 6-(4-methoxyphenyl)indolizino[3,2-c]quinoline-10-carbonitrile]
fluorescence (intensity, in words): further high fluorescence intensity in an aqueous solution

SMILES: COc1ccc(-c2nc3ccccc3c3cc4c5ccccc5ccn4c23)cc1 [IQ 77, 6-(4-methoxyphenyl)benzo[7,8]indolizino[3,2-c]quinoline]
fluorescence (intensity, in words): very high fluorescence intensity at a blue wavelength in EtOH and DMSO

SMILES: CCc1nc2ccccc2c2cc3c4ccccc4ccn3c12 [IQ 79, 6-ethylbenzo[7,8]indolizino[3,2-c]quinoline]
fluorescence (intensity, in words): very high fluorescence intensity at a blue wavelength in EtOH and DMSO

SMILES: Nc1ccc(-c2nc3ccccc3c3cc4ccccn4c23)cc1 [IQ-B1, 4-(indolizino[3,2-c]quinolin-6-yl)aniline]
solvent-dependent (environment-sensitive) tendency of the emission: high solvent-dependent (i.e., environment-sensitive) tendency

SMILES: Oc1ccc(-c2nc3ccccc3c3cc4ccccn4c23)cc1 [IQ-B2, 4-(indolizino[3,2-c]quinolin-6-yl)phenol]
solvent-dependent (environment-sensitive) tendency of the emission: high solvent-dependent (i.e., environment-sensitive) tendency

SMILES: C(=C\c1nc2ccccc2c2cc3ccccn3c12)/c1ccccc1 [IQ-B4, (E)-6-styrylindolizino[3,2-c]quinoline]
λex(nm) (Table 7): 415 nm

SMILES: COc1ccc(-c2nc3ccccc3c3cc4cc(C=O)ccn4c23)cc1 [IQ-B11, 6-(4-methoxyphenyl)indolizino[3,2-c]quinoline-10-carbaldehyde]
λex(nm) (Table 7): 427 nm
maximum wavelength of fluorescence (Tris buffer (pH 7.5)): 531 nm

SMILES: COc1ccc(/C=C/c2nc3ccccc3c3cc4ccccn4c23)cc1 [IQ-B12, (E)-6-(4-methoxystyryl)indolizino[3,2-c]quinoline]
Abs maximum λ for UV: 344 nm
Stokes shift: ≥ 180 nm

SMILES: COc1ccc(-c2nc3ccccc3c3cc4cc(/C=C/n5ccnc5)ccn4c23)cc1 [IQ-B20, (E)-10-(2-(1H-imidazol-1-yl)vinyl)-6-(4-methoxyphenyl)indolizino[3,2-c]quinoline]
fluorescence (intensity, in words): high fluorescence in other solvents as well as an aqueous solution

The remaining lines, values ahead:

λex(nm) (Table 7): 422 nm
SMILES: CN(/N=C/c1nc2ccccc2c2cc3ccccn3c12)c1ccccc1 [IQ-B16, (E)-6-((2-methyl-2-phenylhydrazineylidene)methyl)indolizino[3,2-c]quinoline]

fluorescence (intensity, in words): high fluorescence in DMSO
λex(nm) (Table 7): 434 nm
SMILES: COc1ccc(-c2nc3ccccc3c3cc4cc(-c5ccc(C=O)cc5)ccn4c23)cc1 [IQ-B23, 4-(6-(4-methoxyphenyl)indolizino[3,2-c]quinolin-10-yl)benzaldehyde]

fluorescence (intensity, in words): high fluorescence in DMSO
λex(nm) (Table 7): 444 nm
SMILES: COc1ccc(-c2nc3ccccc3c3cc4cc(/C=C/C=O)ccn4c23)cc1 [IQ-B25, (E)-3-(6-(4-methoxyphenyl)indolizino[3,2-c]quinolin-10-yl)acrylaldehyde]

λex(nm) (Table 7): 427 nm
SMILES: COc1ccc(-c2nc3ccccc3c3cc4cc(-c5ccc(C(=O)Nc6ccccc6)cc5)ccn4c23)cc1 [IQ-B35, 4-(6-(4-methoxyphenyl)indolizino[3,2-c]quinolin-10-yl)-N-phenylbenzamide]

λex(nm) (Table 7): 422 nm
SMILES: CCN(CC)C(=O)c1ccc(-c2ccn3c(c2)cc2c4ccccc4nc(-c4ccc(OC)cc4)c23)cc1 [IQ-B36, N,N-diethyl-4-(6-(4-methoxyphenyl)indolizino[3,2-c]quinolin-10-yl)benzamide]

λex(nm) (Table 7): 423 nm
SMILES: COc1ccc(-c2nc3ccccc3c3cc4cc(-c5ccc6ccccc6c5)ccn4c23)cc1 [IQ-B39, 6-(4-methoxyphenyl)-10-(naphthalen-2-yl)indolizino[3,2-c]quinoline]

λex(nm) (Table 7): 431 nm
SMILES: COc1ccc(-c2nc3ccccc3c3cc4cc(-c5ccc(C#N)cc5)ccn4c23)cc1 [IQ-B43, 4-(6-(4-methoxyphenyl)indolizino[3,2-c]quinolin-10-yl)benzonitrile]

λex(nm) (Table 7): 436 nm
SMILES: COc1ccc(-c2nc3ccccc3c3cc4cc(/C=C/C#N)ccn4c23)cc1 [IQ-B44, (E)-3-(6-(4-methoxyphenyl)indolizino[3,2-c]quinolin-10-yl)acrylonitrile]

quantum yield (Φ) (DW, standard Rhodamine 6G): 0.000
quantum yield (Φ) (EtOH, standard Coumarin 153): 0.000
Relative fluorescence Emission Intensitynorm: 0.00
SMILES: O=[N+]([O-])c1ccc(-c2nc3ccccc3c3cc4ccccn4c23)cc1 [compound 2]

Maximum absorption wavelength λmax abs(nm): 400 nm
quantum yield (Φ) (DW, standard Rhodamine 6G): 0.005
quantum yield (Φ) (EtOH, standard Coumarin 153): 0.196
Fluorescence Emission Intensity: 4.7
Peak emission wavelength λmax em(nm): 532 nm
Relative fluorescence Emission Intensitynorm: 0.02
SMILES: c1ccc(-c2nc3ccccc3c3cc4ccccn4c23)nc1 [compound 5]

quantum yield (Φ) (DW, standard Rhodamine 6G): 0.026
quantum yield (Φ) (EtOH, standard Coumarin 153): 0.756
Fluorescence Emission Intensity: 60.8
Peak emission wavelength λmax em(nm): 527.5 nm
Relative fluorescence Emission Intensitynorm: 0.26
SMILES: COc1cc(OC)cc(-c2nc3ccccc3c3cc4ccccn4c23)c1 [compound 7]

Maximum absorption wavelength λmax abs(nm): 407 nm
quantum yield (Φ) (DW, standard Rhodamine 6G): 0.006
quantum yield (Φ) (EtOH, standard Coumarin 153): 0.111
Fluorescence Emission Intensity: 7.5
Peak emission wavelength λmax em(nm): 536 nm
Relative fluorescence Emission Intensitynorm: 0.03
SMILES: Clc1ccc(-c2nc3ccccc3c3cc4ccccn4c23)s1 [compound 11]

Maximum absorption wavelength λmax abs(nm): 395 nm
quantum yield (Φ) (DW, standard Rhodamine 6G): 0.131
quantum yield (Φ) (EtOH, standard Coumarin 153): 0.623
Fluorescence Emission Intensity: 11.8
Peak emission wavelength λmax em(nm): 531.5 nm
Relative fluorescence Emission Intensitynorm: 0.05
SMILES: Cc1cccn2c1cc1c3ccccc3nc(-c3ccc(Br)cc3)c12 [compound 12]

quantum yield (Φ) (DW, standard Rhodamine 6G): 0.000
quantum yield (Φ) (EtOH, standard Coumarin 153): 0.000
Relative fluorescence Emission Intensitynorm: 0.00
SMILES: Cc1cccn2c1cc1c3ccccc3nc(-c3ccc([N+](=O)[O-])cc3)c12 [compound 13]

quantum yield (Φ) (DW, standard Rhodamine 6G): 0.024
quantum yield (Φ) (EtOH, standard Coumarin 153): 0.654
Fluorescence Emission Intensity: 9.4
Peak emission wavelength λmax em(nm): 535.5 nm
Relative fluorescence Emission Intensitynorm: 0.04
SMILES: Cc1ccc(-c2nc3ccccc3c3cc4c(C)cccn4c23)cc1 [compound 15]

quantum yield (Φ) (DW, standard Rhodamine 6G): 0.014
quantum yield (Φ) (EtOH, standard Coumarin 153): 0.672
Fluorescence Emission Intensity: 11.7
Peak emission wavelength λmax em(nm): 535 nm
Relative fluorescence Emission Intensitynorm: 0.05
SMILES: COc1cc(OC)cc(-c2nc3ccccc3c3cc4c(C)cccn4c23)c1 [compound 16]

quantum yield (Φ) (DW, standard Rhodamine 6G): 0.367
quantum yield (Φ) (EtOH, standard Coumarin 153): 0.468
Fluorescence Emission Intensity: 143.5
Peak emission wavelength λmax em(nm): 493 nm
Relative fluorescence Emission Intensitynorm: 0.62
SMILES: COC(=O)c1c2c3ccccc3nc(-c3cccc4ccccc34)c2n2ccccc12 [compound 20]

Reference: patent US10787448B2, “Indolizino [3,2-C] quinoline-based fluorescent probe” (SEOUL NATIONAL UNIVERSITY R & DB FOUNDATION, priority 2015, dated 2020)
